Results from PMC5849685, “Molecular basis of an agarose metabolic pathway acquired by a human intestinal symbiont” (Nature Communications, 2018).
Each block holds one compound with its values, some of them ahead of it.

How the values were obtained:
Type in all cases: biochemical
GH2C = biological target: T1, GH2C (Bacteroides uniformis, UniProt A0A2D0TCC9); assay: TLC product analysis; settings: 2 uM enzyme, 2.5 mM A3, 20 mM Tris pH 8.0, 0.5 M NaCl, 37 C, 2 h
T1 construct: nucleotides 76-2547 of the gene (signal peptide removed; about residues 26-848), N-terminal His6 tag with thrombin site, pET28a, E. coli BL21 Star (DE3)
T1 sequence (A0A2D0TCC9 4-826): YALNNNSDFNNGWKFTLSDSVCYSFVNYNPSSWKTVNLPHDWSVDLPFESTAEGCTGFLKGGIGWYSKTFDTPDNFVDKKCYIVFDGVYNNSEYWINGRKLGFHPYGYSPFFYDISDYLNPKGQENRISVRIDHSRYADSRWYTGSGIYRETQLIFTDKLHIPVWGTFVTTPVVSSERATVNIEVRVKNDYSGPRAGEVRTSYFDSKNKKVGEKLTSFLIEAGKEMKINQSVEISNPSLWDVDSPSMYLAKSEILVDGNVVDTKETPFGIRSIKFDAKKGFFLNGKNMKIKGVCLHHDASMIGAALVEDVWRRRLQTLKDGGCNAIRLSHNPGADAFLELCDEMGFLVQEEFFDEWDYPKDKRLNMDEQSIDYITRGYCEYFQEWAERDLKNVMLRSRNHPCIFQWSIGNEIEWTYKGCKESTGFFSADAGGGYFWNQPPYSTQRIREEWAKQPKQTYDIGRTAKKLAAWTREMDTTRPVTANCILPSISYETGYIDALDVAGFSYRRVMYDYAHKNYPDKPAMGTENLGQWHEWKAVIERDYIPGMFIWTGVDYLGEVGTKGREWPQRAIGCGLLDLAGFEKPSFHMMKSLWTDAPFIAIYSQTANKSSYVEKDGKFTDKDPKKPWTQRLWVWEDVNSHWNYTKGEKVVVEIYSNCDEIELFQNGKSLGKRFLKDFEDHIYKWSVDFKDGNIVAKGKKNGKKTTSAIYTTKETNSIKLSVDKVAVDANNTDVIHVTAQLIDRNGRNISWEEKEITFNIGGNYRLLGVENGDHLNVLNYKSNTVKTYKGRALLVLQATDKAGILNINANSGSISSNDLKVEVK

GH117B = biological target: T2, GH117B (Bacteroides uniformis, UniProt A0A2D0TCD6); assay: TLC product analysis; settings: 0.5 uM enzyme, 0.5 mg/ml N2, 20 mM Tris pH 8.0, 0.5 M NaCl, 37 C, 24 h
T2 construct: nucleotides 76-1209 of the gene (signal peptide removed; about residues 26-402), N-terminal His6 tag with thrombin site, pET28a, E. coli BL21 Star (DE3); homodimer
T2 sequence (A0A2D0TCD6 4-380): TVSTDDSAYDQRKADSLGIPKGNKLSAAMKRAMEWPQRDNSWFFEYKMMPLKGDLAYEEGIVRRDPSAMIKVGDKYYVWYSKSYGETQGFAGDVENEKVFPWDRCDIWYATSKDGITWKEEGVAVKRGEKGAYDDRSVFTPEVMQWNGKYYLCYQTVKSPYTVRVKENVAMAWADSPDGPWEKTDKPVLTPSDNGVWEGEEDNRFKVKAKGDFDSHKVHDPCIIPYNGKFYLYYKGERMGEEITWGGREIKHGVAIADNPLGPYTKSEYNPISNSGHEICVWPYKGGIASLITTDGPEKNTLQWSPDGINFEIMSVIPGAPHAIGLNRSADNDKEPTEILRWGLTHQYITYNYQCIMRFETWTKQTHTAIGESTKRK

GH86 = biological target: T3, GH86 (Bacteroides uniformis, UniProt A0A2D0TCD3); assay: FACE product analysis; settings: 20 mM Tris pH 8.0, 0.5 M NaCl, 37 C, overnight
T3 construct: nucleotides 61-1941 of the gene (signal peptide removed; about residues 21-646), N-terminal His6 tag with thrombin site, pET28a, E. coli BL21 Star (DE3)
T3 sequence (A0A2D0TCD3 4-629): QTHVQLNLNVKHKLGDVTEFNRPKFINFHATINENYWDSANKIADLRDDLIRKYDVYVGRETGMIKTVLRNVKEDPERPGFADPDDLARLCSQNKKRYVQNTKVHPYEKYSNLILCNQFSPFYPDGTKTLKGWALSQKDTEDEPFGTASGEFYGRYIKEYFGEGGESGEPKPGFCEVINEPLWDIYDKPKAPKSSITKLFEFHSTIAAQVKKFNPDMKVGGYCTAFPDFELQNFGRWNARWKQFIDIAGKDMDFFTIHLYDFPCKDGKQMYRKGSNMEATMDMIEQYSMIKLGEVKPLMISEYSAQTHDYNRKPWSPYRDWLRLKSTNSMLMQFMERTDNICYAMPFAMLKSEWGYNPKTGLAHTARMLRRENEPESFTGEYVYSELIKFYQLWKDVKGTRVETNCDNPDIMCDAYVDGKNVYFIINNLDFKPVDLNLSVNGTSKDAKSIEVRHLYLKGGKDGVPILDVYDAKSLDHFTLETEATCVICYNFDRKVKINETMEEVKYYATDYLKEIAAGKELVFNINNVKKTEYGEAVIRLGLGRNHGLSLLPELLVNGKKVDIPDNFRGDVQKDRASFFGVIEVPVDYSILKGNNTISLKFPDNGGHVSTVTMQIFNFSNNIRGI

GH16B = biological target: T4, GH16B (Bacteroides uniformis, UniProt A0A2D0TCD1); assay: FACE product analysis; settings: 20 mM Tris pH 8.0, 0.5 M NaCl, 37 C, overnight
T4 construct: nucleotides 67-1029 of the gene (signal peptide removed; about residues 23-342), N-terminal His6 tag with thrombin site, pET28a, E. coli BL21 Star (DE3)
T4 sequence (A0A2D0TCD1 4-323): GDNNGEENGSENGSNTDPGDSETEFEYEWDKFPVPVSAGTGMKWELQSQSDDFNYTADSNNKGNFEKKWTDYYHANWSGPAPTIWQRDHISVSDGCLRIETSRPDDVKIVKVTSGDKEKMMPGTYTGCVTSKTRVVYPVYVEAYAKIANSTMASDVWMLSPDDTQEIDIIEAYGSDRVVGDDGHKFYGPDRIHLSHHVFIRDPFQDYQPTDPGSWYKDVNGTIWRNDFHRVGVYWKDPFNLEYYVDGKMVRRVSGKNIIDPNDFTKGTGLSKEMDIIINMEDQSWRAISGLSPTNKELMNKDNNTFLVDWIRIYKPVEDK

TLC product analysis (GH2C): GH2C was able to hydrolyze A3
SMILES: OC[C@H]1O[C@@H](O[C@H]2[C@H]3OC[C@@H]2O[C@@H](O[C@H]2[C@@H](O)[C@@H](CO)OC(O)[C@@H]2O)[C@H]3O)[C@H](O)[C@@H](O)[C@H]1O (stereo partly drawn) [A3, agarotriose]

TLC product analysis (GH117B): GAL and AHG released from N2 by GH117B
SMILES: OC[C@H]1OC(O)[C@H](O)[C@@H](O[C@@H]2O[C@H]3CO[C@@H]([C@@H]2O)[C@@H]3O)[C@H]1O (stereo partly drawn) [N2, neoagarobiose]

SMILES: OC[C@H]1O[C@@H](O[C@H]2[C@H]3OC[C@@H]2O[C@@H](O[C@H]2[C@@H](O)[C@@H](CO)O[C@@H](O[C@H]4[C@H]5OC[C@@H]4O[C@@H](O[C@H]4[C@@H](O)[C@@H](CO)OC(O)[C@@H]4O)[C@H]5O)[C@@H]2O)[C@H]3O)[C@H](O)[C@@H](O[C@@H]2O[C@H]3CO[C@@H]([C@@H]2O)[C@@H]3O)[C@H]1O (stereo partly drawn) [N6, neoagarohexaose]
FACE product analysis (GH86): GH86 was able to digest neoagarooctaose (N8) and neoagarohexaose (N6) to N2
FACE product analysis (GH16B; weak activity): GH16B predominantly generated N4 from N8, N2 and N4 from N6

SMILES: OC[C@H]1O[C@@H](O[C@H]2[C@H]3OC[C@@H]2O[C@@H](O[C@H]2[C@@H](O)[C@@H](CO)O[C@@H](O[C@H]4[C@H]5OC[C@@H]4O[C@@H](O[C@H]4[C@@H](O)[C@@H](CO)O[C@@H](O[C@H]6[C@H]7OC[C@@H]6O[C@@H](O[C@H]6[C@@H](O)[C@@H](CO)OC(O)[C@@H]6O)[C@H]7O)[C@@H]4O)[C@H]5O)[C@@H]2O)[C@H]3O)[C@H](O)[C@@H](O[C@@H]2O[C@H]3CO[C@@H]([C@@H]2O)[C@@H]3O)[C@H]1O (stereo partly drawn) [N8, neoagarooctaose]
FACE product analysis (GH86): GH86 was able to digest neoagarooctaose (N8) and neoagarohexaose (N6) to N2
FACE product analysis (GH16B): GH16B predominantly generated N4 from N8, N2 and N4 from N6
